Counter-ions that a name gives are not always drawn. Like-named read-outs stand apart in the source and are kept apart here.
What was measured:
Serratia marcescens [1] = assay: Activity in vitro: minimum inhibitory concentration; type: cell-based
Staphylococcus epidermis = assay: as above; type: cell-based
Streptococcus pyogenes [2] = assay: as above; type: cell-based
Pseudomonas aeruginosa [3] = assay: Activity in vivo: survival of intraperitoneally infected mice; conditions: sc, 96 h; mice infected i.p. with Pseudomonas aeruginosa; s.c. three times, 1 h, 3 h and 5 h after infection; survival on 4th day; read-out: CD50 (dosage at which 50% of the animals survive)
Experimental: (§1) Groups of 5 mice are infected intraperitoneally with an aqueous suspension of various pathogens. The test substance in physiological sodium chloride solution is administered subcutaneously twice, i.e. 1 hour and 3 hours after the infection. The number of surviving animals is determined on the 4th day. Various dosages are administered and that dosage at which 50% of the experimental animals survive (CD50, mg/kg) is determined by interpolation.
*Administered subcutaneously three times: 1 hour, 3 hours and 5 hours

Proteus vulgaris = assay: Activity in vitro: minimum inhibitory concentration; type: cell-based
Enterobacter cloacae [4] = assay: as above; type: cell-based
Neisseria moningitidis = assay: Activity in vivo: survival of intraperitoneally infected mice; conditions: sc, 96 h; mice infected i.p. with Neisseria moningitidis; s.c. twice, 1 h and 4 h after infection; survival on 4th day; read-out: CD50 (dosage at which 50% of the animals survive)
Experimental: as §1
**Administered subcutaneously twice: 1 hour and 4 hours after the […]

Streptococcus viridans = assay: Activity in vitro: minimum inhibitory concentration; type: cell-based
Proteus rettgeri = assay: as above; type: cell-based; conditions: Providencia rettgeri
Klebsiella pseumoniae = assay: as above; type: cell-based
Streptococcus faecalis = assay: as above; type: cell-based; conditions: Enterococcus faecalis
Citrobacter freundii = assay: as above; type: cell-based
Toxicity, LD50 = conditions: in vivo
Enterobacter aerogenes = assay: Activity in vitro: minimum inhibitory concentration; type: cell-based; conditions: Klebsiella aerogenes
Proteus inconstans = assay: as above; type: cell-based; conditions: Providencia alcalifaciens
Klebsiella pneumoniae = assay: Activity in vivo: survival of intraperitoneally infected mice; conditions: sc, 96 h; mice infected i.p. with Klebsiella pneumoniae; s.c. twice, 1 h and 3 h after infection; survival on 4th day; read-out: CD50 (dosage at which 50% of the animals survive)
Experimental: as §1

Streptococcus pyogenes [5] = assay: as above; conditions: sc, 96 h; mice infected i.p. with Streptococcus pyogenes; s.c. twice, 1 h and 3 h after infection; survival on 4th day; read-out: CD50 (dosage at which 50% of the animals survive)
Experimental: as §1

Serratia marcescens [6] = assay: as above; conditions: sc, 96 h, 1 h and 3 h after infection, survival on 4th day, read-out: CD50 (dosage at which 50% of the animals survive)
Experimental: as §1

Enterobacter cloacae [7] = assay: as above; conditions: sc, 96 h; mice infected i.p. with Enterobacter cloacae; s.c. twice, 1 h and 3 h after infection; survival on 4th day; read-out: CD50 (dosage at which 50% of the animals survive)
Experimental: as §1

Haemophilus influenzae = assay: as above; conditions: sc, 96 h; mice infected i.p. with Haemophilus influenzae; s.c. twice, 1 h and 3 h after infection; survival on 4th day; read-out: CD50 (dosage at which 50% of the animals survive)
Experimental: as §1

Escherichia coli [8] = assay: as above; conditions: sc, 96 h; mice infected i.p. with Escherichia coli; s.c. twice, 1 h and 3 h after infection; survival on 4th day; read-out: CD50 (dosage at which 50% of the animals survive)
Experimental: as §1

Pseudomonas aeruginosa [9] = assay: Activity in vitro: minimum inhibitory concentration; type: cell-based
Proteus morganii = assay: as above; type: cell-based; conditions: Morganella morganii
Staphylococcus aureus [10] = assay: as above; type: cell-based
Proteus mirabilis = assay: as above; type: cell-based
Escherichia coli [11] = assay: as above; type: cell-based
Streptococcus pneumoniae = assay: as above; type: cell-based
Staphylococcus aureus [12] = assay: Activity in vivo: survival of intraperitoneally infected mice; conditions: sc, 96 h; mice infected i.p. with Staphylococcus aureus; s.c. twice, 1 h and 3 h after infection; survival on 4th day; read-out: CD50 (dosage at which 50% of the animals survive)
Experimental: as §1

[13] = Streptococcus pyogenes strain 1, read-out: Minimum inhibitory concentration
[14] = Streptococcus pyogenes strain 2, read-out: Minimum inhibitory concentration
[15] = Streptococcus faecalis strain 1
[16] = Streptococcus faecalis strain 2
[17] = Enterobacter aerogenes strain 1
[18] = Enterobacter aerogenes strain 2
[19] = mice infected i.p. with Serratia marcescens strain 1, s.c. twice
[20] = Pseudomonas aeruginosa strain 1
[21] = Pseudomonas aeruginosa strain 3

`CO/N=C(\C(=O)N[C@@H]1C(=O)N2C(C(=O)O)=C(CSc3nc(=O)c(O)nn3C)CS[C@H]12)c1c[se]c(N)n1` [Product C, (6R, 7R)-7-[2-(2-amino-4-selenazolyl)-2-[(Z)-methoxyimino]-acetamido]-3-[[(2,5-dihydro-6-hydroxy-2-methyl-5-oxo-as-triazin-3-yl)thio]methyl]-8-oxo-5-thia-1-azabicyclo[4.2.0]oct-2-ene-2-carboxylic acid disodium salt] gave an MIC (Serratia marcescens [1]; Serratia marcescens strain 1) of 0.4 µg/mL, an MIC (Serratia marcescens [1]; Serratia marcescens strain 2) of 1.6 µg/mL and an MIC (Serratia marcescens [1]; Serratia marcescens strain 3) of 0.1 µg/mL. For the same molecule, the MIC (Staphylococcus epidermis) was 3.1 µg/mL, the MIC (Streptococcus pyogenes [2]; [13]) was 0.05 µg/mL and the MIC (Streptococcus pyogenes [2]; [14]) was no more than 0.012 µg/mL. The ED50 (Pseudomonas aeruginosa [3]) was 14 mg/kg, the MIC (Proteus vulgaris) was 1.6 µg/mL and the MIC (Enterobacter cloacae [4]; Enterobacter cloacae strain 1) was greater than 100 µg/mL. For the same molecule, the MIC (Enterobacter cloacae [4]; Enterobacter cloacae strain 2) was 3.1 µg/mL, the MIC (Enterobacter cloacae [4]; Enterobacter cloacae strain 3) was greater than 100 µg/mL and the ED50 (Neisseria moningitidis) was less than 0.05 mg/kg. It also gave an MIC (Streptococcus viridans) of 3.1 µg/mL, an MIC (Proteus rettgeri) of 0.1 µg/mL and an MIC (Klebsiella pseumoniae; Klebsiella pseumoniae strain 1) of 0.1 µg/mL. For the same molecule, the MIC (Klebsiella pseumoniae; Klebsiella pseumoniae strain 2) was 0.05 µg/mL, the MIC (Klebsiella pseumoniae; Klebsiella pseumoniae strain 3) was 0.1 µg/mL and the MIC (Streptococcus faecalis; [15]) was greater than 100 µg/mL. For the same molecule, the MIC (Streptococcus faecalis; [16]) was greater than 100 µg/mL, the MIC (Citrobacter freundii; Citrobacter freundii strain 1) was 12.5 µg/mL and the MIC (Citrobacter freundii; Citrobacter freundii strain 2) was 0.1 µg/mL. It also gave an LD50 (Toxicity, LD50; po) greater than 5000 mg/kg, an LD50 (Toxicity, LD50; sc) greater than 4000 mg/kg and an MIC (Enterobacter aerogenes; [17]) of 0.1 µg/mL. The MIC (Enterobacter aerogenes; [18]) was 0.1 µg/mL, the MIC (Proteus inconstans) was 0.006 µg/mL and the ED50 (Klebsiella pneumoniae) was 0.23 mg/kg. For the same molecule, the ED50 (Streptococcus pyogenes [5]) was 0.04 mg/kg, the ED50 (Serratia marcescens [6]; [19]) was 0.07 mg/kg and the ED50 (Enterobacter cloacae [7]) was 17 mg/kg. For the same molecule, the ED50 (Haemophilus influenzae) was less than 0.05 mg/kg, the ED50 (Escherichia coli [8]) was less than 0.003 mg/kg and the MIC (Pseudomonas aeruginosa [9]; [20]) was 3.1 µg/mL. For the same molecule, the MIC (Pseudomonas aeruginosa [9]; Pseudomonas aeruginosa strain 2) was 6.3 µg/mL, the MIC (Pseudomonas aeruginosa [9]; [21]) was 1.6 µg/mL and the MIC (Proteus morganii) was 0.05 µg/mL. It also gave an MIC (Staphylococcus aureus [10]; Staphylococcus aureus strain 1) of 3.1 µg/mL, an MIC (Staphylococcus aureus [10]; Staphylococcus aureus strain 2) of 6.3 µg/mL and an MIC (Staphylococcus aureus [10]; Staphylococcus aureus strain 3) of 3.1 µg/mL. For the same molecule, the MIC (Staphylococcus aureus [10]; Staphylococcus aureus strain 4) was 6.3 µg/mL, the MIC (Proteus mirabilis; Proteus mirabilis strain 1) was 0.012 µg/mL and the MIC (Proteus mirabilis; Proteus mirabilis strain 2) was 0.025 µg/mL. For the same molecule, the MIC (Proteus mirabilis; Proteus mirabilis strain 3) was 1.6 µg/mL, the MIC (Proteus mirabilis; Proteus mirabilis strain 4) was 0.012 µg/mL and the MIC (Proteus mirabilis; Proteus mirabilis strain 5) was 0.012 µg/mL. It also gave an MIC (Escherichia coli [11]; Escherichia coli strain 1) of 0.1 µg/mL, an MIC (Escherichia coli [11]; Escherichia coli strain 2) of 0.05 µg/mL and an MIC (Escherichia coli [11]; Escherichia coli strain 3) of 0.8 µg/mL. The MIC (Escherichia coli [11]; Escherichia coli strain 4) was 0.4 µg/mL, the MIC (Escherichia coli [11]; Escherichia coli strain 5) was 0.2 µg/mL and the MIC (Streptococcus pneumoniae) was 0.05 µg/mL.
With `CO/N=C(\C(=O)N[C@@H]1C(=O)N2C(C(=O)OCOC(=O)C(C)(C)C)=C(C)CS[C@H]12)c1c[se]c(N)n1` [Product H, Methylene (6R, 7R)-7-[2-(2-amino-4-selenazolyl)-2-[(Z)-methoxyimino]-acetamido]-3-methyl-8-oxo-5-thia-1-azabicyclo[4.2.0]oct-2-ene-2-carboxylate pivalate] the ED50 (Pseudomonas aeruginosa [3]) was greater than 100 mg/kg, the LD50 (Toxicity, LD50; po) was greater than 5000 mg/kg and the ED50 (Klebsiella pneumoniae) was 0.44 mg/kg. It also gave an ED50 (Staphylococcus aureus [12]) greater than 12 mg/kg, an ED50 (Streptococcus pyogenes [5]) of 0.13 mg/kg and an ED50 (Escherichia coli [8]) of 0.11 mg/kg.
Molecule `CC1=C(C(=O)[O-])N2C(=O)[C@@H](NC(=O)/C(=N\O)c3c[se]c(N)n3)[C@H]2SC1.[Na+]` [Product M, (6R, 7R)-7-[2-[2-amino-4-selenazolyl]-2-[(Z)-hydroxyimino]-acetamido]-3-methyl-8-oxo-5-thia-1-azabicyclo[4.2.0]oct-2-ene-2-carboxylic acid sodium salt] has an MIC (Serratia marcescens [1]; Serratia marcescens strain 1) of 25 µg/mL, an MIC (Serratia marcescens [1]; Serratia marcescens strain 2) of 100 µg/mL and an MIC (Serratia marcescens [1]; Serratia marcescens strain 3) of 6.3 µg/mL. The MIC (Staphylococcus epidermis) was 3.1 µg/mL, the MIC (Streptococcus pyogenes [2]; [13]) was 1.6 µg/mL and the MIC (Streptococcus pyogenes [2]; [14]) was 0.1 µg/mL. It also gave an MIC (Enterobacter cloacae [4]; Enterobacter cloacae strain 1) greater than 200 µg/mL, an MIC (Enterobacter cloacae [4]; Enterobacter cloacae strain 2) greater than 200 µg/mL and an MIC (Enterobacter cloacae [4]; Enterobacter cloacae strain 3) greater than 200 µg/mL. For the same molecule, the MIC (Streptococcus viridans) was 25 µg/mL, the MIC (Proteus rettgeri) was 0.2 µg/mL and the MIC (Klebsiella pseumoniae; Klebsiella pseumoniae strain 1) was 0.8 µg/mL. The MIC (Klebsiella pseumoniae; Klebsiella pseumoniae strain 2) was 0.4 µg/mL, the MIC (Klebsiella pseumoniae; Klebsiella pseumoniae strain 3) was 0.4 µg/mL and the MIC (Streptococcus faecalis; [15]) was 200 µg/mL. For the same molecule, the MIC (Streptococcus faecalis; [16]) was greater than 200 µg/mL, the MIC (Citrobacter freundii; Citrobacter freundii strain 1) was 100 µg/mL and the MIC (Citrobacter freundii; Citrobacter freundii strain 2) was 1.6 µg/mL. For the same molecule, the MIC (Enterobacter aerogenes; [17]) was 0.4 µg/mL, the MIC (Enterobacter aerogenes; [18]) was 1.6 µg/mL and the MIC (Proteus inconstans) was 0.05 µg/mL. It also gave an ED50 (Staphylococcus aureus [12]) of 2.7 mg/kg, an ED50 (Streptococcus pyogenes [5]) of 0.28 mg/kg and an ED50 (Serratia marcescens [6]; [19]) of 3.5 mg/kg. The ED50 (Serratia marcescens [6]; mice infected i.p. with Serratia marcescens strain 2, s.c. twice) was greater than 50 mg/kg, the ED50 (Escherichia coli [8]) was 1 mg/kg and the MIC (Pseudomonas aeruginosa [9]; [20]) was greater than 400 µg/mL. It also gave an MIC (Pseudomonas aeruginosa [9]; [21]) greater than 400 µg/mL, an MIC (Proteus morganii) of 100 µg/mL and an MIC (Staphylococcus aureus [10]; Staphylococcus aureus strain 1) of 3.1 µg/mL. For the same molecule, the MIC (Staphylococcus aureus [10]; Staphylococcus aureus strain 2) was 6.3 µg/mL, the MIC (Staphylococcus aureus [10]; Staphylococcus aureus strain 3) was 3.1 µg/mL and the MIC (Staphylococcus aureus [10]; Staphylococcus aureus strain 4) was 6.3 µg/mL. It also gave an MIC (Proteus mirabilis; Proteus mirabilis strain 3) of 0.8 µg/mL, an MIC (Proteus mirabilis; Proteus mirabilis strain 4) of 6.3 µg/mL and an MIC (Proteus mirabilis; Proteus mirabilis strain 5) of 1.6 µg/mL. It also gave an MIC (Escherichia coli [11]; Escherichia coli strain 1) of 0.8 µg/mL, an MIC (Escherichia coli [11]; Escherichia coli strain 2) of 0.4 µg/mL and an MIC (Escherichia coli [11]; Escherichia coli strain 3) of 50 µg/mL. The MIC (Escherichia coli [11]; Escherichia coli strain 4) was 200 µg/mL, the MIC (Escherichia coli [11]; Escherichia coli strain 5) was 3.1 µg/mL and the MIC (Streptococcus pneumoniae) was 6.3 µg/mL.

Source: patent US4593093A, “Acyl derivatives” (priority 1980, dated 1986)
